From ChEMBL document CHEMBL5291721, “A preclinical secondary pharmacology resource illuminates target-adverse drug reaction associations of marketed drugs” (Nat Commun, 2023)

How the values were obtained:
[1] = molecular target: Acetylcholinesterase (Homo sapiens, UniProt P22303); format: functional
[2] = molecular target: T1, Alpha-1A adrenergic receptor (Homo sapiens, UniProt P35348); format: functional, cell-based
T1 sequence (P35348 whole entry): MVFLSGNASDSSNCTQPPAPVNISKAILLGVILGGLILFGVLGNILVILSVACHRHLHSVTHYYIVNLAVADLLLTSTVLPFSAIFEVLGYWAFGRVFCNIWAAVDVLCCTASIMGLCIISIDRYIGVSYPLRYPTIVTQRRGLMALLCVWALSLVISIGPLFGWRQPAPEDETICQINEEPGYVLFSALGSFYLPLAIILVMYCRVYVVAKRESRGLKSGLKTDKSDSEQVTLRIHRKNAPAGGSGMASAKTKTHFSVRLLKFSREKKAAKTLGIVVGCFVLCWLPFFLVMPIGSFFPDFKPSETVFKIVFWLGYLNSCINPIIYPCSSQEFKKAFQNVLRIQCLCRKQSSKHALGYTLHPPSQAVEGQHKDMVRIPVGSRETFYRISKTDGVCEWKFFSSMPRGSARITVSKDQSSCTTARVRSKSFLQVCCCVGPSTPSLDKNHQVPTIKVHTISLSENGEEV

[3] = molecular target: T2, Alpha-2A adrenergic receptor (Homo sapiens, UniProt P08913)
T2 sequence (P08913 whole entry): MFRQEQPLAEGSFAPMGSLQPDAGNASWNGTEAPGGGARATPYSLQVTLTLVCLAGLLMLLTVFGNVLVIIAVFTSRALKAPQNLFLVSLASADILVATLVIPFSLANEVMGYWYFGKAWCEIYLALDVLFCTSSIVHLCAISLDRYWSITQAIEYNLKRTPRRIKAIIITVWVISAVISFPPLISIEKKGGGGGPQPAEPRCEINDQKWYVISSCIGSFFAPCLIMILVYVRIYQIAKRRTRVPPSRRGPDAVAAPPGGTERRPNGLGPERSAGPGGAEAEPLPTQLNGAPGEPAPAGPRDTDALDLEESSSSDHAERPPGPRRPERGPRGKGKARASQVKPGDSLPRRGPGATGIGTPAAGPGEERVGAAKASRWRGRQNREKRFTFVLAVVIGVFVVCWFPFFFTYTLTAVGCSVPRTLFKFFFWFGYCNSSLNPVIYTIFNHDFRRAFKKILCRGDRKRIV

[4] = molecular target: T3, Muscarinic acetylcholine receptor M2 (Homo sapiens, UniProt P08172)
T3 sequence (P08172 whole entry): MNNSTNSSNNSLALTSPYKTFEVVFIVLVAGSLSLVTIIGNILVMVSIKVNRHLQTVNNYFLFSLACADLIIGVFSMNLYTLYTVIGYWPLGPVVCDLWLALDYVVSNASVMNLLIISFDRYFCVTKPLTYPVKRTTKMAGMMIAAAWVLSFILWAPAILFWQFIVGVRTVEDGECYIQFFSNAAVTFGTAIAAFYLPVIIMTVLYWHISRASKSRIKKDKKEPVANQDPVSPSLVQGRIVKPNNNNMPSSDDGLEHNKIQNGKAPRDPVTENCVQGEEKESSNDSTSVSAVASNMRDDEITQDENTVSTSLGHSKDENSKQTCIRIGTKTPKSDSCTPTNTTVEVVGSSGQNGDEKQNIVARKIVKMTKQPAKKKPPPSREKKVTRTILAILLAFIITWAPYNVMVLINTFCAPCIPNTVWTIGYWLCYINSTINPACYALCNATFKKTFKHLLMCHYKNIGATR

[5] = molecular target: D(1A) dopamine receptor (Homo sapiens, UniProt P21728)
Chain of D(1A) dopamine receptor (P21728 whole entry): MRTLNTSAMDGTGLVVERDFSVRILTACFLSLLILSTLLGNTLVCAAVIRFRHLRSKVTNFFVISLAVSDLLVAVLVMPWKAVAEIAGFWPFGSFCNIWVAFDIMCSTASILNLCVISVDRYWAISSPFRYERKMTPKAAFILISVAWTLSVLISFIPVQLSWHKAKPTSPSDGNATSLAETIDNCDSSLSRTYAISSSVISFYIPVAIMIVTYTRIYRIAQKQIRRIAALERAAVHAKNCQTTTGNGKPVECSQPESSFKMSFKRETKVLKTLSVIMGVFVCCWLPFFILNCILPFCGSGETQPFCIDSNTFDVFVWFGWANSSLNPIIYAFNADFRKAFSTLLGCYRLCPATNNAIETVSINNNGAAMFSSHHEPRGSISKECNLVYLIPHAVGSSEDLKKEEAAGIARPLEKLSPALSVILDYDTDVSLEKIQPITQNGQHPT

[6] = molecular target: D(3) dopamine receptor (Homo sapiens, UniProt P35462)
[7] = molecular target: Gamma-aminobutyric acid receptor subunit alpha-1 (Rattus norvegicus, UniProt P62813)
Chain of Gamma-aminobutyric acid receptor subunit alpha-1 (P62813 whole entry): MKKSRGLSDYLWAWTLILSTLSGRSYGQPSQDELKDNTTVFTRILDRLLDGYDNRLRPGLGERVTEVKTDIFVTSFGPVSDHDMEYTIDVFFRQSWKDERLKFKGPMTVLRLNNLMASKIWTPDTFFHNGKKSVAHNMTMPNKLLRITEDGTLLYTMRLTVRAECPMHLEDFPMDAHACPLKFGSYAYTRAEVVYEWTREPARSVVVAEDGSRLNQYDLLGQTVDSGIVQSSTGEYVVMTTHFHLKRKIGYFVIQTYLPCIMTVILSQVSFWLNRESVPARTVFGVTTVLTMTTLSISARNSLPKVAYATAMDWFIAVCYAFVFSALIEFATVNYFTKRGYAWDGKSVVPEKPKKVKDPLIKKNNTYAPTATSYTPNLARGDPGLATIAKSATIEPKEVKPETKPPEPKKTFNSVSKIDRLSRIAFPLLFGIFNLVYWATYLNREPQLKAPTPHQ

[8] = molecular target: Histamine H3 receptor (Homo sapiens, UniProt Q9Y5N1)
Chain of Histamine H3 receptor (Q9Y5N1 whole entry): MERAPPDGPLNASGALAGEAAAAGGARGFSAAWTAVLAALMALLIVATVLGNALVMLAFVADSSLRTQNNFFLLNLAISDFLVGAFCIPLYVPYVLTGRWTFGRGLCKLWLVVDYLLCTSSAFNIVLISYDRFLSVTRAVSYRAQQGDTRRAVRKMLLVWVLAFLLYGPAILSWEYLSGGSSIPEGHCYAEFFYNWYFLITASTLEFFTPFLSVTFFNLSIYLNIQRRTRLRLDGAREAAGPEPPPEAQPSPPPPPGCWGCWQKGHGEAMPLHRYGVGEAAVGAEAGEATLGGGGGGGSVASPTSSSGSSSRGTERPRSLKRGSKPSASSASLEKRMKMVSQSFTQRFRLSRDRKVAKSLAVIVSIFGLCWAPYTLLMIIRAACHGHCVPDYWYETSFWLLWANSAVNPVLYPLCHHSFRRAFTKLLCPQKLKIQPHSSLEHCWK

[9] = molecular target: T4, 5-hydroxytryptamine receptor 1A (Homo sapiens, UniProt P08908)
T4 sequence (P08908 whole entry): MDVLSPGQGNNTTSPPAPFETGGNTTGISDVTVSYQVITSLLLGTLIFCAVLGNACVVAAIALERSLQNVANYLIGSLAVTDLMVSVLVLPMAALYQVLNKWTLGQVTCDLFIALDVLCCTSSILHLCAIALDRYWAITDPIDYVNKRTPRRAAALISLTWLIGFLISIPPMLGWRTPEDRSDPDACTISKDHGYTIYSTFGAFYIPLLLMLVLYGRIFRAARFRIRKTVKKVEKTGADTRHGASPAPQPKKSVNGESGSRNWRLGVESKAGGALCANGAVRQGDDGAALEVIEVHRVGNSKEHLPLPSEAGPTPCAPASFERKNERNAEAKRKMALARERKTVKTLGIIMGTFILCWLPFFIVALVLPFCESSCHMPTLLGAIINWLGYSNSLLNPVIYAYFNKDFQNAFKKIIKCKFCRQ

[10] = molecular target: 5-hydroxytryptamine receptor 2B (Homo sapiens, UniProt P41595); format: functional, cell-based
Chain of 5-hydroxytryptamine receptor 2B (P41595 whole entry): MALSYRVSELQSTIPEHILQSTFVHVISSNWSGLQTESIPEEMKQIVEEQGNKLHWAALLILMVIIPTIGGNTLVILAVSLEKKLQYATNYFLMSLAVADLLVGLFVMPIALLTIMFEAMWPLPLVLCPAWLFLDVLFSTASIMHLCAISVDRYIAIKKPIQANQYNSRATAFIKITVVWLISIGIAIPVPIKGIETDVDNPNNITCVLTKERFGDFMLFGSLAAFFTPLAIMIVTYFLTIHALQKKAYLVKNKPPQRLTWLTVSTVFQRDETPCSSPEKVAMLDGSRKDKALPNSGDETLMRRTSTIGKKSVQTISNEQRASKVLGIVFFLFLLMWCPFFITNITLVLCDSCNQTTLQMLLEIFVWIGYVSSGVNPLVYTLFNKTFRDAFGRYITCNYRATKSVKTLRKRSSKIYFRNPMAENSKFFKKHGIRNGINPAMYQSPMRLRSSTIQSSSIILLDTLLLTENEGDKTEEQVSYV

[11] = molecular target: T5, Amine oxidase [flavin-containing] A (Homo sapiens, UniProt P21397); format: functional
T5 sequence (P21397 whole entry): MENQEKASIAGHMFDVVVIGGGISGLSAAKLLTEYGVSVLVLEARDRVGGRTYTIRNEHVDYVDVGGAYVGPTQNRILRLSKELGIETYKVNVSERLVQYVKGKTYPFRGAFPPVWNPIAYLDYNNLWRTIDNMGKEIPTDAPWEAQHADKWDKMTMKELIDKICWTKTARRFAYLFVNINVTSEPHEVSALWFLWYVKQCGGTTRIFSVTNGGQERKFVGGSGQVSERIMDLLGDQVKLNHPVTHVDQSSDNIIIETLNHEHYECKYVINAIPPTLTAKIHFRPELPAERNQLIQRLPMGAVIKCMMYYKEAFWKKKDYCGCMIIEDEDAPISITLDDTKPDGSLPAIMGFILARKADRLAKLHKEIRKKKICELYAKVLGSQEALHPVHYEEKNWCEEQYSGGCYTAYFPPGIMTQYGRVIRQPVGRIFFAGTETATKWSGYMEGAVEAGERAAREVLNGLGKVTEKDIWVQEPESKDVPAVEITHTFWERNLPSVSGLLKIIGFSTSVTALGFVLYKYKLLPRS

[12] = molecular target: Mu-type opioid receptor (Homo sapiens, UniProt P35372)
Chain of Mu-type opioid receptor (P35372 whole entry): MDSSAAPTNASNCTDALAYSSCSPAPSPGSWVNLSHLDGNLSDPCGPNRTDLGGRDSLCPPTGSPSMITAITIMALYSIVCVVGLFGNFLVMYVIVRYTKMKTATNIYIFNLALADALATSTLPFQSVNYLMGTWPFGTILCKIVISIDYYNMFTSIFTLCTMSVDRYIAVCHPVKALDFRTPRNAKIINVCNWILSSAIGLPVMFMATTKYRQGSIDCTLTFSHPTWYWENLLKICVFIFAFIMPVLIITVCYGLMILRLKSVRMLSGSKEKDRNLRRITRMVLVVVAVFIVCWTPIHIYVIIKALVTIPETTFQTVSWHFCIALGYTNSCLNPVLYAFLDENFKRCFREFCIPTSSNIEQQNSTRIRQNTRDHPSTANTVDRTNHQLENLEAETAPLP

[13] = molecular target: Sodium-dependent noradrenaline transporter (Homo sapiens, UniProt P23975)
Chain of Sodium-dependent noradrenaline transporter (P23975 whole entry): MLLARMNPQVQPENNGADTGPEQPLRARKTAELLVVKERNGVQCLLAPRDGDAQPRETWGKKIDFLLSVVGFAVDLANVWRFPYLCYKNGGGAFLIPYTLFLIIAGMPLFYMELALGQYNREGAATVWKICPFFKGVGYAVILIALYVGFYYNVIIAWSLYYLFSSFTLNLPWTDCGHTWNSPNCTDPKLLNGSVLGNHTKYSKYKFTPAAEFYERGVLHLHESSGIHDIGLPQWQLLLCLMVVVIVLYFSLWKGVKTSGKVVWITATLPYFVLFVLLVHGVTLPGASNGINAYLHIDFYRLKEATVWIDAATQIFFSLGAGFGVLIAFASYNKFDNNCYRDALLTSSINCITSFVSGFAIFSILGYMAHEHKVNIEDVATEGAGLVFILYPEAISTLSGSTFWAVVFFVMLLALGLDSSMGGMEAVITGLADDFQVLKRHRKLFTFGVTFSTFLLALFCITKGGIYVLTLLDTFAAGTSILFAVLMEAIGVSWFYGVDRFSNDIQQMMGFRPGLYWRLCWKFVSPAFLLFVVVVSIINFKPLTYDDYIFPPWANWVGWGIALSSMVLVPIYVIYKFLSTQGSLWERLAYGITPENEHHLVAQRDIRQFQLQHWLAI

[14] = molecular target: Sodium-dependent dopamine transporter (Homo sapiens, UniProt Q01959)
Chain of Sodium-dependent dopamine transporter (Q01959 whole entry): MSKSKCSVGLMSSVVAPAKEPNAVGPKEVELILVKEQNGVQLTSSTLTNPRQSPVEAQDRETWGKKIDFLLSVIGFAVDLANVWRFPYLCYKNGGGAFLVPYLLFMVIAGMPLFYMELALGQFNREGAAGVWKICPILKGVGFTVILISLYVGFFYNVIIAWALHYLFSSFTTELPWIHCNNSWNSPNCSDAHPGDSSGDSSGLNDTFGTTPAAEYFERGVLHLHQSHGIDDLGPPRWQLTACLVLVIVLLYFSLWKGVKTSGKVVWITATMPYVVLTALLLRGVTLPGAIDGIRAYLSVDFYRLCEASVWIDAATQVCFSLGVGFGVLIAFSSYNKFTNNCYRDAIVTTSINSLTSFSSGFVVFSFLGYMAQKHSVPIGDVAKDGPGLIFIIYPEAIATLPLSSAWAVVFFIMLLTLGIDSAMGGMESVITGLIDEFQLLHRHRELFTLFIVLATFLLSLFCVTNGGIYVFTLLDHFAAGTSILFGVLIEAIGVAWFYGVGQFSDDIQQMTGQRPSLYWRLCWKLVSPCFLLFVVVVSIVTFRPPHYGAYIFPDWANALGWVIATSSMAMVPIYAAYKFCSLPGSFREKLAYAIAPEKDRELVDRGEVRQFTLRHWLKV

[15] = molecular target: T6, D(4) dopamine receptor (Homo sapiens, UniProt P21917)
T6 sequence (P21917 whole entry): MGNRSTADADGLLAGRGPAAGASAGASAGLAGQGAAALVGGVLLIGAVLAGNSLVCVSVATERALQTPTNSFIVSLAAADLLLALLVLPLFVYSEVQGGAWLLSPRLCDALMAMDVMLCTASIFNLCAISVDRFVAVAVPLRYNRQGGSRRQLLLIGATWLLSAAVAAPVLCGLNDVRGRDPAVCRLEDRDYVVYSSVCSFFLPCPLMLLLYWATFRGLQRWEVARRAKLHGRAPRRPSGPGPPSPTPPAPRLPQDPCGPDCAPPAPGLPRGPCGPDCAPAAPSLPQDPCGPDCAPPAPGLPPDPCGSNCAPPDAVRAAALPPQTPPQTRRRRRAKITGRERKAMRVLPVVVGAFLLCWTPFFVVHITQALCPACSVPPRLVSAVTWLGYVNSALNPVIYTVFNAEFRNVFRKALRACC

[16] = molecular target: Sodium-dependent serotonin transporter (Homo sapiens, UniProt P31645)
Chain of Sodium-dependent serotonin transporter (P31645 whole entry): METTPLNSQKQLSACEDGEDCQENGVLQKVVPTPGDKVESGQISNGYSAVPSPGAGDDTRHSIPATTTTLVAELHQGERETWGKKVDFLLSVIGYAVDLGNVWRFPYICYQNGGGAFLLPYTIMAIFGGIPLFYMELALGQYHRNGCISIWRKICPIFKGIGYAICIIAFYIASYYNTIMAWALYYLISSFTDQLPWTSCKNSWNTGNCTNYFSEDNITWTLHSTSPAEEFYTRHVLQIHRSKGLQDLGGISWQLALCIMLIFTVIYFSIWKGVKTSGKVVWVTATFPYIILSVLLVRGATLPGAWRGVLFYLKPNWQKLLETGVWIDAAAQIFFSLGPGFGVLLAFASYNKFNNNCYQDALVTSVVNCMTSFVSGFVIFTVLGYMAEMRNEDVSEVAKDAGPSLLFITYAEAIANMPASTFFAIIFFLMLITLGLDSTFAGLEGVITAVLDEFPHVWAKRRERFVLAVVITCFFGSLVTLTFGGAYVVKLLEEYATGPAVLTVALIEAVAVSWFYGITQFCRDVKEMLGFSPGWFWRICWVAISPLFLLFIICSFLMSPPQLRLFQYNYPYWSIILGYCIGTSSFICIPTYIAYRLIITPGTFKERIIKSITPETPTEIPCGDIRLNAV

Measured: AC50
Also: assay procedure not described here.

Chain of Acetylcholinesterase (P22303 whole entry): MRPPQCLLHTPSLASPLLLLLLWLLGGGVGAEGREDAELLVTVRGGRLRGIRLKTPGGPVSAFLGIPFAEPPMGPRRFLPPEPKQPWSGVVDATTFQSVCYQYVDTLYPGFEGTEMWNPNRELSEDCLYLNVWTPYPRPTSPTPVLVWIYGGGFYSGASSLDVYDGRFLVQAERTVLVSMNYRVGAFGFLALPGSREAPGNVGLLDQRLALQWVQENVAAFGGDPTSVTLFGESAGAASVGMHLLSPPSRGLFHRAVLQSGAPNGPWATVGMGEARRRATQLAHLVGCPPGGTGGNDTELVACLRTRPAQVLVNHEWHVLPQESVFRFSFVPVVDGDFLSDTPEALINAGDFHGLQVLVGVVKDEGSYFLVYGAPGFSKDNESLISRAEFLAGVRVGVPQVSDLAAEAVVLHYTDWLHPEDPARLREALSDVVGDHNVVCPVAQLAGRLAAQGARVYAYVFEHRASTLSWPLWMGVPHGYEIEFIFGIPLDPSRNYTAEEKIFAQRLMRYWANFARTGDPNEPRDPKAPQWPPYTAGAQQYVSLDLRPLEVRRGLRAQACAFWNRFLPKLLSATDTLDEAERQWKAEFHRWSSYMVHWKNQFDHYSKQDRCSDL

CN1CCCN=C1/C=C/c1cccs1
10.9 µM: [1]

CC[C@@]1(O)C[C@H](O[C@H]2C[C@H](N(C)C)[C@H](O[C@H]3C[C@H](O)[C@H](O[C@H]4CCC(=O)[C@H](C)O4)[C@H](C)O3)[C@H](C)O2)c2c(cc3c(c2O)C(=O)c2c(O)cccc2C3=O)[C@H]1C(=O)OC [ACLARUBICIN]
not listed: [15] | [16]
> 30 µM: all other assays above

CCOC(=O)C1=C(COCCN)NC(C)=C(C(=O)OC)C1c1ccccc1Cl (stereo unspecified) [AMLODIPINE]
> 30 µM: [1]

CN/C(=N/CCSCc1nc[nH]c1C)NC#N [CIMETIDINE]
> 30 µM: [1]

CC(C)n1c(/C=C/C(O)CC(O)CC(=O)O)c(-c2ccc(F)cc2)c2ccccc21 (stereo unspecified) [FLUVASTATIN]
> 30 µM: [1]

O=c1[nH]c2ccccc2n1C1CCN(CCCC(c2ccc(F)cc2)c2ccc(F)cc2)CC1 [PIMOZIDE]
0.0728 µM: [15]

CN1CCN(CC(=O)N2c3ccccc3C(=O)Nc3cccnc32)CC1 [PIRENZEPINE]
> 30 µM: [1] | [16]
